Experimental data published in patent EP0381533A2, “Cyclic monophosphates of purine and pyrimidine acyclonucleosides” (Merck & Co., Inc., priority 1989, dated 1990).

Tested on: Eisenhart Human Cytomegalovirus
Assay: Human Cytomegalovirus (HCMV) Plaque Reduction Assay
Format: cell-based
Conditions: MRC-5 cells (human fetal lung); ~60 PFUs; plaques counted on day 6 post inoculation
Description: Activity against Human Cytomegalovirus is determined by employing the Human Cytomegalovirus (HCMV) Assay. Two tissue culture assays are available; Cell Protection and Plaque Reduction. Both assays utilize MRC-5 cells (human fetal lung) and Eisenhart Human Cytomegalovirus. The following is a description of the Cell Protection and Plaque Reduction Assays.
Eight-two fold dilutions are made of the compound to be tested. After the dilutions are made, 0.5 ml of each dilution is added to each of three decanted wells of MRC-5. Two wells are used to determine the antiviral activity of the compound to be tested and one well is used to determine toxicity. The MRC-5 plates are then decanted, and the wells are infected with 0.1 ml of Human Cytomegalovirus inoculum containing ∼60 PFUs. The plates are then adsorbed for 1 hour at 37°C/5% CO₂. After one hour the virus is removed from the wells and duplicate wells are refed with dilutions of the compound to be tested. The plates are then incubated at 37°C/5% CO₂. Plaques are counted microscopically on day 6 post inoculation.

SMILES	Plag Red [µg/mL]
Nc1nc2c(ncn2COC(CO)CO)c(=O)[nH]1 [2-amino-1,9-dihydro-9-((2-hydroxy-1-(hydroxymethyl)-ethoxy)methyl)-6H-Purin-6-one]	0.78
Nc1ccn(COC2COP(=O)(O)OC2)c(=O)n1 (stereo not drawn) [Sodium 1-[(2-hydroxy-1,3,2-dioxophosphorinan-5-yl)-oxymethyl]cytosine P-oxide]	25.00
Nc1nc2c(ncn2COC2COP(=O)(O)OC2)c(=O)[nH]1 (stereo not drawn) [Sodium 9-[(2-hydroxy-1,3,2-dioxophosphorinan-5-yl)-oxymethyl]guanine P-oxide]	0.19
